In patent US6464839B1, “Beta-elemene, method to prepare the same and uses thereof” (Yuan da International Group Limited, priority 1997, dated 2002):

Key:
[1] = system: cerebral neuroglioma; test: Cerebral neuroglioma, murine sub-renal capsule model; format: in vivo
Excerpt: (D) Neuroglioma: It was indicated in the pharmacodynamic study of cerebral neuroglioma using murine sub-renal capsule model that the inhibition rate was 50-70%.

[2] = Side effects in animal pharmacodynamic studies (bone marrow, white blood cell count); format: in vivo
[3] = Passage through the brain-blood barrier; format: in vivo; conditions: work of the Department of Embryology, Dalian Medical University
[4] = system: thalamic glioblastoma; brain metastasis of lung cancer; test: Treatment of patients with brain tumors with beta-elemene emulsive injection; format: in vivo, human
Description: In two instances, patients at the Second Affiliated Hospital of the Dalian Medical University were treated with the beta-elemene composition as an emulsive injection. The medical records were kept at that hospital.
The patient was hospitalized for surgery in July 1995. […] A beta-elemene emulsive injection was employed through 600 ml cervical artery intubation and 400 ml intravenous drip alternately once per day.
Due to the lung metastasis and the age of the patient, surgery was difficult to perform. The patient was hospitalized in mid November 1996.
The patient was treated with beta-elemene as prepared herein. […] In the middle of December 1996 the patient had another CT scan.

[5] = system: murine Ehrlich ascites carcinoma; conditions: material with beta-elemene 65%, gamma and delta-elemene 20%, impurities 15%; cited from earlier work
[6] = system: rat ascitic reticulum cell sarcoma; conditions: material with beta-elemene 65%, gamma and delta-elemene 20%, impurities 15%; cited from earlier work
[7] = material with beta-elemene 65%, gamma and delta-elemene 20%, impurities 15%; cited from earlier work
[8] = system: S180 solid tumor; test: S180 solid tumor, animal pharmacodynamic study; conditions: injection
[9] = system: S180 ascites cancer; test: S180 ascites cancer, animal pharmacodynamic study; conditions: intra-peritoneal injection
[10] = system: hepatic solid tumor; test: Hepatic solid tumor, animal pharmacodynamic study
[11] = system: EAC; test: EAC ascites carcinoma, animal pharmacodynamic study; conditions: EAC ascites cancer, intra-peritoneal injection
[12] = system: L1210 leukemia; test: Murine leukemia L1210, animal pharmacodynamic study; conditions: injection
[13] = system: hepatic ascites carcinoma; test: Hepatic ascites carcinoma, animal pharmacodynamic study
[14] = Patient I, thalamic glioblastoma

## C=CC1(C)CCC(C(=C)C)CC1C(=C)C (stereo not drawn) [beta-elemene, 1-methyl-1-vinyl-2,4-diisoprotenyl-cyclohexane]
[1]
  inhibition rate: 50-70%
[2]
  bone marrow inhibition or reduction of white blood cell count: no measurable bone marrow inhibition or reduction of white blood cell count
[3]
  ability to pass through the brain-blood barrier (BBB): able to pass through the brain-blood barrier (BBB)
[4]; [14]
  survival with the tumor: 11 months
  tumor size on CT scan: no apparent reduction in tumor size
[4]; Patient I, thalamic glioblastoma, cervical artery intubation and intravenous drip alternately once per day
  growth of the tumor: quickly controlled
[4]; Patient II, based upon previous experience with patients at that stage of illness
  prolongation of the life of the patient: more than 4 months
[4]; Patient II, lung cancer with multiple metastasis to the brain, about one month of treatment
  tumor size on CT scan: The size of the tumor was reduced
[5]
  anti-tumor activity: marked anti-tumor activity
[6]
  anti-tumor activity: marked anti-tumor activity
[7]
  side effects during treatment: Diarrhea and weight loss
[8]
  inhibition rate: 33-59%
[9]
  life prolongation rate: 90-321%
[10]
  inhibition rate: 10-30%
[11]
  life prolongation rate: 85-310%
[12]
  life prolongation rate: 47-289%
[13]
  life prolongation rate: 103-224%
